Experimental data from patent US8153795B2, “Substituted 1-oxa-3,8-diazaspiro[4.5]-decan-2-one-compounds and the use thereof for producing drugs” (Gruenenthal GmbH, priority 2005, dated 2012).

Experiments:
5-HT transporter = target: T1, 5-HT transporter (Rattus norvegicus, UniProt P31652); test: 5-HT uptake inhibition in rat brain synaptosomes (medulla and pons), [3H]-5-HT; format: biochemical
T1 construct: from tissue; host or cells: rat brain synaptosomes (P2 fraction) from medulla and pons
Procedure, shortened: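 Freshly isolated P2 synaptosomes taken from rat hypothalamus (NA) or medulla/pons (5-HT) were incubated at room temperature under O2 with [3H]-NA for 7.5 min or [3H]-5-HT for 5 min. Uptake was measured as filter-retained radioactivity by scintillation counting.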

NA transporter = target: T2, NA transporter (Rattus norvegicus, UniProt Q63380); test: noradrenalin uptake inhibition in rat brain synaptosomes (hypothalamus), [3H]-NA; format: biochemical
T2 construct: from tissue; host or cells: rat brain synaptosomes (P2 fraction) from hypothalamus
T2 sequence (Q63380 1-617): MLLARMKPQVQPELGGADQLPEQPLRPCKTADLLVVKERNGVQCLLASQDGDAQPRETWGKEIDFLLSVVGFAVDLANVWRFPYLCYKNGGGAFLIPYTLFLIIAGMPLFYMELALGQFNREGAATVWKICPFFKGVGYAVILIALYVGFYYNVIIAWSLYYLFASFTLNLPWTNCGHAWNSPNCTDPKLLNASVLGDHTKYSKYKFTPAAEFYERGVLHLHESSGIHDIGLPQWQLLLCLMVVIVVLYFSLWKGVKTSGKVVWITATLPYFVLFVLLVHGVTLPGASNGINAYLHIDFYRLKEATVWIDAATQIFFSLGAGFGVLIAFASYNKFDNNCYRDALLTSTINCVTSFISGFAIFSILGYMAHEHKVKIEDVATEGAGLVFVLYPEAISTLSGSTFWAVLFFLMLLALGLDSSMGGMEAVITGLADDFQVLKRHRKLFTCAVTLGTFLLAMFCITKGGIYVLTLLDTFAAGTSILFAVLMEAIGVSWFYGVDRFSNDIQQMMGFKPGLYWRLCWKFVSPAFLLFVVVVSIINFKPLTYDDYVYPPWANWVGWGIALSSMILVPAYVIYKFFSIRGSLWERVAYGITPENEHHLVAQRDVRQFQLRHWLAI
From the text: a) Method for Determining Noradrenalin and 5-HT Uptake Inhibition:
Synaptosomes from rat brain regions are freshly isolated for in vitro studies, as described in the publication “The isolation of nerve endings from brain” by E. G. Gray and V. P. Whittaker, J. Anatomy 96, pages 79-88, 1962. The corresponding literature description is hereby introduced as a reference and is deemed to be part of the disclosure.
The tissue (hypothalamus for the determination of noradrenalin uptake inhibition and medulla and pons for the determination of 5-HT uptake inhibition) is homogenised in ice-cooled 0.32 M sucrose (100 mg of tissue/1 mL) in a glass homogeniser with Teflon pestle using five complete up and down strokes at 840 revolutions/minute.
The homogenate is centrifuged at 4° C. for 10 minutes at 1000 g. After subsequent centrifugation at 17000 g for 55 minutes, the synaptosomes (P2 fraction) are obtained, which are resuspended in 0.32 M […] (0.5 mL/100 mg of original weight).
The particular uptake is measured in a 96-well microtitre plate. The volume is 250 μl and the incubation proceeds at room temperature (approx. 20-25° C.) under an O2 atmosphere.
The incubation time is 7.5 minutes for [^3H]-NA and 5 minutes for [^3H]-5-HT. The 96 samples are then filtered through a Unifilter GF/B® microtitre plate (Packard) and washed with 200 mL of incubated buffer using a “Brabdel MPXRI-96T Cell-Harvester”. The Unifilter GF/B plate is dried for 1 hour at 55° C. The plate is then sealed with a Back Seal® (Packard) and 35 μl of scintillation fluid are added per well (Ultima Gold®, Packard). After sealing with a top Seal® (Packard) and establishing an equilibrium (around 5 hours), radioactivity is determined in a “Trilux 1450 Microbeta” (Wallac).
The quantity of protein used in the above determination corresponds to the values known from the literature, as for example described in “Protein measurement with the folin phenol reagent”, Lowry et al., J. Biol. Chem., 193, 265-275, 1951.
A detailed description of the method may additionally be found in the literature, for example in M. Ch. Frink, H.-H. Hennies, W. Engelberger, M. Haurand and B. Wilffert (1996) Arzneim.-Forsch./Drug Res. 46 (III), 11, 1029-1036.

T1 sequence (P31652 whole entry): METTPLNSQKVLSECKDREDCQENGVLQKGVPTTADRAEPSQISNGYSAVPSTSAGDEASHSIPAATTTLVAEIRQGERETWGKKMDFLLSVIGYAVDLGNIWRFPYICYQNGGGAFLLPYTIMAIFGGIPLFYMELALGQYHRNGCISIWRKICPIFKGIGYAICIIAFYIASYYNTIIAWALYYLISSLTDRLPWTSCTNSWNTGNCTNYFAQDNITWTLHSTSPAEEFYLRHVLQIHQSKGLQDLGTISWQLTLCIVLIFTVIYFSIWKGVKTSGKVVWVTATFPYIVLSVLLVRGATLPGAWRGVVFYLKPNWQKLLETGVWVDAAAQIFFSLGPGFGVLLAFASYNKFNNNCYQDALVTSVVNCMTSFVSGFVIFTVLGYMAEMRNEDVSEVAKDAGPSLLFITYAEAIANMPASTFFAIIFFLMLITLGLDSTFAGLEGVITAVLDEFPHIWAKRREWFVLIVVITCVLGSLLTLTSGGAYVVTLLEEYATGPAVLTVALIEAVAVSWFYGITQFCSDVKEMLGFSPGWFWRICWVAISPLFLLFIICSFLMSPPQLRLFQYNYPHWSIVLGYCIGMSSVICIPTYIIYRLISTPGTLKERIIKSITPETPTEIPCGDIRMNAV

Row | SMILES | inhibition at 10 µM (5-HT transporter) | inhibition at 10 µM (NA transporter)
1 | N#Cc1ccc(CN2CC3(CCN(Cc4cccc([N+](=O)[O-])c4)CC3)OC2=O)cc1 [Example 89, 4-[8-(3-nitrobenzyl)-2-oxo-1-oxa-3,8-diazaspiro[4.5]dec-3-ylmethyl]benzonitrile] | 63% | 57%
2 | CCOC(=O)c1cccc(NC(=O)N2CCC3(CC2)CN(Cc2ccc(C)cc2)C(=O)O3)c1 [Example 53, 3-{[3-(4-methylbenzyl)-2-oxo-1-oxa-3,8-diazaspiro[4.5]decane-8-carbonyl]amino}benzoic acid ethyl ester] | 68% | 81%
3 | O=C1OC2(CCN(C(=O)c3ccc(-c4ccccc4)cc3)CC2)CN1Cc1cccc(Br)c1 [Example 104, 8-(biphenyl-4-carbonyl)-3-(3-bromobenzyl)-1-oxa-3,8-diazaspiro[4.5]decan-2-one] | 89% | 73%
4 | O=C(CN1CCC2(CC1)CN(Cc1ccccc1C(F)(F)F)C(=O)O2)Nc1ccc(OC(F)(F)F)cc1 [Example 87, 2-[2-oxo-3-(2-trifluoromethylbenzyl)-1-oxa-3,8-diazaspiro[4.5]dec-8-yl]-N-(4-trifluoromethoxyphenyl)acetamide] | 72% | 59%
5 | O=C1OC2(CCN(C(=S)Nc3cc(Cl)ccc3Cl)CC2)CN1Cc1cccc(Br)c1 [Example 2, 3-(3-bromobenzyl)-2-oxo-1-oxa-3,8-diazaspiro[4.5]decane-8-carbothioic acid (2,5-dichlorophenyl)amide] | 60% | 64%
6 | O=C1OC2(CCN(C(=O)c3ccc([N+](=O)[O-])cc3)CC2)CN1Cc1cccc(Br)c1 [Example 109, 3-(3-bromobenzyl)-8-(4-nitrobenzoyl)-1-oxa-3,8-diazaspiro[4.5]decan-2-one] | 81% | 78%
7 | O=C1OC2(CCN(Cc3ccc([N+](=O)[O-])cc3)CC2)CN1Cc1ccc(F)c(F)c1 [Example 74, 3-(3,4-difluorobenzyl)-8-(4-nitrobenzyl)-1-oxa-3,8-diazaspiro[4.5]decan-2-one] | 66% | 57%
8 | O=C(Nc1cc(F)ccc1F)N1CCC2(CC1)CN(Cc1cccc(Br)c1)C(=O)O2 [Example 29, 3-(3-bromobenzyl)-2-oxo-1-oxa-3,8-diazaspiro[4.5]decane-8-carboxylic acid (2,5-difluorophenyl)amide] | 84% | 82%
9 | COc1ccc(NC(=O)N2CCC3(CC2)CN(Cc2ccc4ccccc4c2)C(=O)O3)cc1 [Example 52, 3-naphthalen-2-ylmethyl-2-oxo-1-oxa-3,8-diazaspiro[4.5]decane-8-carboxylic acid (4-methoxyphenyl)amide] | 94% | 96%
10 | O=C(NCc1ccc(F)cc1)N1CCC2(CC1)CN(Cc1ccc(F)c(F)c1)C(=O)O2 [Example 28, 3-(3,4-difluorobenzyl)-2-oxo-1-oxa-3,8-diazaspiro[4.5]decane-8-carboxylic acid 4-fluorobenzylamide] | 45% | 53%
11 | COc1cccc(NC(=O)N2CCC3(CC2)CN(Cc2ccccc2-c2ccccc2)C(=O)O3)c1 [Example 62, 3-biphenyl-2-ylmethyl-2-oxo-1-oxa-3,8-diazaspiro[4.5]decane-8-carboxylic acid (3-methoxyphenyl)amide] | 57% | 67%
12 | N#Cc1cccc(CN2CC3(CCN(C(=S)Nc4cc(Cl)cc(Cl)c4)CC3)OC2=O)c1 [Example 14, 3-(3-cyanobenzyl)-2-oxo-1-oxa-3,8-diazaspiro[4.5]decane-8-carbothioic acid (3,5-dichlorophenyl)amide] | 57% | 49%
13 | O=C(NCc1ccc(Cl)c(Cl)c1)N1CCC2(CC1)CN(Cc1cccc(Br)c1)C(=O)O2 [Example 42, 3-(3-bromobenzyl)-2-oxo-1-oxa-3,8-diazaspiro[4.5]decane-8-carboxylic acid 3,4-dichlorobenzylamide] | 60% | 83%
14 | COc1ccc(NC(=O)N2CCC3(CC2)CN(Cc2ccccc2)C(=O)O3)cc1 [Example 39, 3-benzyl-2-oxo-1-oxa-3,8-diazaspiro[4.5]decane-8-carboxylic acid (4-methoxyphenyl)amide] | 42% | 76%
15 | CCCc1ccc(C(=O)N2CCC3(CC2)CN(Cc2cccc(Br)c2)C(=O)O3)cc1 [Example 148, 3-(3-bromobenzyl)-8-(4-propylbenzoyl)-1-oxa-3,8-diazaspiro[4.5]decan-2-one] | 73% | 75%
16 | COc1ccccc1NC(=S)N1CCC2(CC1)CN(Cc1cccc(Br)c1)C(=O)O2 [Example 6, 3-(3-bromobenzyl)-2-oxo-1-oxa-3,8-diazaspiro[4.5]decane-8-carbothioic acid (2-methoxyphenyl)amide] | 63% | 56%
17 | CCOC(=O)c1cccc(NC(=O)N2CCC3(CC2)CN(Cc2cccc(C#N)c2)C(=O)O3)c1 [Example 61, 3-{[3-(3-cyanobenzyl)-2-oxo-1-oxa-3,8-diazaspiro[4.5]decane-8-carbonyl]amino}benzoic acid ethyl ester] | 69% | 77%
18 | CCOc1ccc(NC(=S)N2CCC3(CC2)CN(Cc2ccc(F)c(F)c2)C(=O)O3)cc1 [Example 13, 3-(3,4-difluorobenzyl)-2-oxo-1-oxa-3,8-diazaspiro[4.5]decane-8-carbothioic acid (4-ethoxyphenyl)amide] | 44% | 53%
19 | Cc1ccc(CN2CC3(CCN(C(=O)Nc4ccc(C)c([N+](=O)[O-])c4)CC3)OC2=O)cc1 [Example 27, 3-(4-methylbenzyl)-2-oxo-1-oxa-3,8-diazaspiro[4.5]decane-8-carboxylic acid (4-methyl-3-nitrophenyl)amide] | 62% | 68%
20 | COc1ccc(-c2noc(CN3CCC4(CC3)CN(Cc3ccc(F)c(F)c3)C(=O)O4)n2)cc1 [Example 77, 3-(3,4-difluorobenzyl)-8-[3-(4-methoxyphenyl)-[1,2,4]oxadiazol-5-ylmethyl]-1-oxa-3,8-diazaspiro[4.5]decan-2-one] | 50% | 64%
21 | COc1cccc(CN2CC3(CCN(Cc4ccc(Cl)cc4)CC3)OC2=O)c1 [Example 79, 8-(4-chlorobenzyl)-3-(3-methoxybenzyl)-1-oxa-3,8-diazaspiro[4.5]decan-2-one] | 67% | 57%
22 | COc1ccc([N+](=O)[O-])cc1CN1CC2(CCN(C(=S)NCC3CCCO3)CC2)OC1=O (stereo not shown) [Example 17, 3-(2-methoxy-5-nitrobenzyl)-2-oxo-1-oxa-3,8-diazaspiro[4.5]decane-8-carbothioic acid (tetrahydrofuran-2-ylmethyl)amide] | 50% | 45%
23 | COc1ccc([N+](=O)[O-])cc1CN1CC2(CCN(C(=O)NC(C)c3cccc4ccccc34)CC2)OC1=O (stereo not shown) [Example 63, 3-(2-methoxy-5-nitrobenzyl)-2-oxo-1-oxa-3,8-diazaspiro[4.5]decane-8-carboxylic acid (1-naphthalen-1-yl-ethyl)amide] | 84% | 41%
24 | Cc1ccc(CN2CC3(CCN(C(=O)NCc4ccc(Cl)c(Cl)c4)CC3)OC2=O)cc1 [Example 36, 3-(4-methylbenzyl)-2-oxo-1-oxa-3,8-diazaspiro[4.5]decane-8-carboxylic acid 3,4-dichlorobenzylamide] | 56% | 60%
25 | O=C1OC2(CCN(Cc3ccc(OC(F)(F)F)cc3)CC2)CN1Cc1ccccc1 [Example 78, 3-benzyl-8-(4-trifluoromethoxybenzyl)-1-oxa-3,8-diazaspiro[4.5]decan-2-one] | 51% | 53%
26 | O=C(CN1CCC2(CC1)CN(Cc1ccccc1F)C(=O)O2)Nc1nc(-c2ccccc2)cs1 [Example 86, 2-[3-(2-fluorobenzyl)-2-oxo-1-oxa-3,8-diazaspiro[4.5]dec-8-yl]-N-(4-phenylthiazol-2-yl)acetamide] | 56% | 79%
